Non-standard residues stand in square brackets, D forms with d. Residues, ends and D or L forms follow the SMILES beside them. *: point of attachment. Hyp = O=C(O)[C@@H]1C[C@@H](O)CN1; d2Thi = N[C@H](Cc1cccs1)C(=O)O; Pip = O=C(O)[C@@H]1CCCCN1; For = O=C*
Tests used:
[1] = target: T1, endothelin receptor B (ETB) (Bos taurus, UniProt P28088); test: Assay of affinity for receptor (2): binding activity on ETB receptor *1, 125I-labeled endothelin-1, bovine brain membrane fraction; details: specific activity, taking the binding activity of the compound of Example 8 on receptor B as 100, 25°C, 1 hour
T1 construct: A membrane fraction prepared from the bovine brain; from tissue; host or cells: bovine brain membrane fraction
T1 sequence (P28088 27-441): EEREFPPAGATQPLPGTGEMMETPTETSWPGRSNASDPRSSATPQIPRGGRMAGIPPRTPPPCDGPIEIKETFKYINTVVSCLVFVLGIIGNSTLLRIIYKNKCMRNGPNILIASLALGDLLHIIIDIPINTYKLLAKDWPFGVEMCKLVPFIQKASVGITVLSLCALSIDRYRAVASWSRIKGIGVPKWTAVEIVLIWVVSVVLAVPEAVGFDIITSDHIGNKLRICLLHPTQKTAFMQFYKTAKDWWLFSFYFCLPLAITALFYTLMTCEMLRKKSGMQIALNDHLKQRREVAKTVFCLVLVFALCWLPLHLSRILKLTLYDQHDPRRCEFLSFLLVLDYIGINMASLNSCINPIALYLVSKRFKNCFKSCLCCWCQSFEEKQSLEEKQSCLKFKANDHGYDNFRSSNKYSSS
Procedure: Assay of Affinity for Receptor (2) ... Binding Activity on ETB Receptor *1
A membrane fraction prepared from the bovine brain was diluted to 0.15 mg/ml by using a buffer solution for assay, and 100 µl of the resulting suspension of the membrane fraction was poured into each assay tube to use for assay. To this suspension of the membrane fraction was added 2 µl of 5 nM ^125I labeled endothelin-1 solution. Further, 3 µl of a test peptide solution was added thereto, followed by incubation at a temperature of 25°C for 1 hour. Then, the resulting suspension was diluted with 900 µl of the buffer solution for assay cooled with ice, and thereafter separated into a supernatant and a precipitate by centrifugation at 12,000 X g for 10 minutes. Cell membranes and an endothelin receptor B (ETB) embedded therein were contained in the precipitate, and radioactive iodine-labeled endothelin bound to the receptor was also recovered in the precipitate. Accordingly, the amount of radioactive iodine-labeled endothelin bound to the endothelin receptor B (ETB) was determined by measuring the amount of radioactive iodine contained in the precipitate with a gamma-ray counter. The numerical value of ETB shown in Table 1 is the value of specific activity, taking the binding activity of the compound of Example 8 on the receptor B as 100.

ETB = ETB radio receptor assay *2, 125I-endothelin-1, guinea pig kidney crude membrane fraction; format: binding, Guinea pigs; details: relative activity, 37 °C, 90 minutes
Procedure: ETB Radio Receptor Assay *2
In the endothelin radio receptor assay, guinea pigs' kidneys were used. Guinea pigs (Std Hartrey, male 250 g, Japan SLC Ltd.) were made to have a cerebral concussion and sacrificed by bleeding from carotid arteries to pick up the kidneys and removed fat therefrom to prepare the kidneys. The obtained kidneys were sliced and homogenized by politron homogenizer in 20 ml of 50 mM Tris-HCl buffer [pH 7.4; 20 mM NaHCO3, 0.1 mM PMSF (Phenylmethylsulfonyl Fluoride), 1 mM EDTA (Ethylenediaminetetraacetic acid)] per one kidney. The homogenized kidney was applied to a centrifugation at 1,000 x g for 15 minutes and the supernatant was further applied to a centrifugation for 20 minutes at 30,000 x g. The resulting precipitate was twice washed with 50 mM Tris-HCl buffer (pH 7.4) containing 0.1 mM PMSF, 1 mM EDTA. The resultant was stored at -80 °C as a crude receptor membrane fraction and was used as the suspension in the following buffer when necessary.
740 Bq of ^125I-endothelin-1 (81.4 TBq/mmol, Du Pont, USA) as a radio ligand, the crude membrane fraction (2.1 µg protein) and samples were added to the following buffer. The reaction was performed at 37 °C, for 90 minutes in 0.2 ml of the buffer [50 mM Tris-HCl buffer (pH 7.4) containing 0.1 mM PMSF, 1 mM EDTA, 0.2% bovine serum albumin].
The reaction was stopped by fast filtration on a glass filter (GF/B, Wattman, USA) by Cell Harvestor (290 PHD, Cambridge-Technology, Great Britain), and the filter was three times washed with 50 mM Tris-HCl buffer (pH 7.4). Radio activity remained on the filter was assayed by a gamma counter.

[2] = target: T2, endothelin receptor A (ETA) (Sus scrofa, UniProt Q29010); test: Assay of affinity for receptor (1): binding activity on ETA receptor, 125I-labeled endothelin-1, porcine heart membrane fraction; parameters: key: relative specific activity; reference cyclic pentapeptide ETA binding = 1.0; details: specific activity, taking the binding activity of control cyclo[-D-Glu-Ala-D-aIle-Leu-D-Trp-] on receptor A as 1.0, 25°C, 1 hour
T2 construct: A membrane fraction prepared from the porcine heart; from tissue; host or cells: porcine heart membrane fraction
T2 sequence (Q29010 21-427): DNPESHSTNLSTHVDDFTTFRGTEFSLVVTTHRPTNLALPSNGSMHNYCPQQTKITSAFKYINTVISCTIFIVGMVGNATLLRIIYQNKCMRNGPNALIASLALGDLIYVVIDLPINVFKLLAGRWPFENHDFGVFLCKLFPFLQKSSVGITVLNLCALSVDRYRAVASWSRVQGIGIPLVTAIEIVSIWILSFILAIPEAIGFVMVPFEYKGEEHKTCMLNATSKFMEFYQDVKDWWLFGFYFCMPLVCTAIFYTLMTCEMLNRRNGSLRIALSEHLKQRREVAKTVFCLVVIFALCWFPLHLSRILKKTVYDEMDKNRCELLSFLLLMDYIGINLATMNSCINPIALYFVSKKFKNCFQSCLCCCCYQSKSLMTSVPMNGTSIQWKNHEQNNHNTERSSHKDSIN
Procedure: Assay of Affinity for Receptor (1) ... Binding Activity on ETA Receptor
A membrane fraction prepared from the porcine heart was diluted to 0.15 mg/ml by using a buffer solution for assay, and 100 µl of the resulting suspension of the membrane fraction was poured into each assay tube to use for assay. To this suspension of the membrane fraction was added 2 µl of 5 nM ^125I-labeled endothelin-1 solution. Further, 3 µl of a test peptide solution was added thereto, followed by incubation at a temperature of 25°C for 1 hour. Then, the resulting suspension was diluted with 900 µl of the buffer solution for assay cooled with ice, and thereafter separated into a supernatant and a precipitate by centrifugation at 12,000 X g for 10 minutes. Cell membranes and an endothelin receptor A (ETA) embedded therein were contained in the precipitate, and radioactive iodine-labeled endothelin combined with the receptor was also recovered in the precipitate. Accordingly, the amount of radioactive iodine-labeled endothelin combined with the endothelin receptor A (ETA) was determined by measuring the amount of radioactive iodine contained in the precipitate with a gamma-ray counter. The cyclic pentapeptide described in Japanese Patent Application No. 2-413328/1990, cyclo[-D-Glu-Ala-D-aIle-Leu-D-Trp-], was used as a control compound. The numerical value of ETA shown in Table 1 is the value of specific activity, taking the binding activity of this cyclic pentapeptide on the receptor A as 1.0. The binding activity (IC50) of this cyclic pentapeptide on the ETA receptor is 2x10^-6 M.

Row | SMILES | Binding Activity on ET Receptor (R. act.) ETB*1 [1] | Binding Activity on ET Receptor (R. act.) ETB*2 (ETB) | Binding Activity on ET Receptor (R. act.) ETA [2]
1 | CC(C)C[C@@H]1NC(=O)[C@@H](CC(C)C)NC(=O)[C@H](CC(=O)O)NC(=O)[C@@H]2C[C@@H](O)CN2C(=O)[C@@H](CC(=O)O)NC(=O)[C@@H](Cc2c[nH]c3ccccc23)NC1=O [Example 14, cyclo[-D-Asp-Hyp-Asp-D-Leu-Leu-D-Trp-]] (cyclo(D[dL]L[dW][dD][Hyp])) | 160 | 120 | 70
2 | CC(C)C[C@@H]1NC(=O)[C@@H](CC(C)C)NC(=O)[C@H](CC(=O)O)NC(=O)[C@@H]2CCCCN2C(=O)[C@@H](CC(=O)O)NC(=O)[C@@H](Cc2c[nH]c3ccccc23)NC1=O [Example 26, Cyclo[-D-Asp-Pip-Asp-D-Leu-Leu-D-Trp-]] (cyclo(D[dL]L[dW][dD][Pip])) | 38 | 73 | 25
3 | CC(C)C[C@@H]1NC(=O)[C@@H](CC(C)C)NC(=O)[C@H](CC(=O)O)NC(=O)[C@@H]2CCCN2C(=O)[C@@H](CC(=O)O)NC(=O)[C@@H](Cc2c[nH]c3ccccc23)NC1=O [Example 9, cyclo[-D-Asp-Pro-Asp-D-Leu-Leu-D-Trp-]] (cyclo(D[dL]L[dW][dD]P)) | 140 | 67 | 56
4 | CC(C)C[C@@H]1NC(=O)[C@@H](CC(C)C)NC(=O)[C@H](CC(=O)O)NC(=O)[C@H](C)NC(=O)[C@@H](CC(=O)O)NC(=O)[C@@H](Cc2c[nH]c3ccccc23)NC1=O [Example 1, cyclo[-D-Asp-Ala-Asp-D-Leu-Leu-D-Trp-]] (cyclo(AD[dL]L[dW][dD])) | 13 | 2.0 | 9.7

More lines, now with the values ahead:

Row | Binding Activity on ET Receptor (R. act.) ETB*1 [1] | Binding Activity on ET Receptor (R. act.) ETB*2 (ETB) | Binding Activity on ET Receptor (R. act.) ETA [2] | SMILES
5 | 350 | 57 | 4 | CC(C)C[C@@H]1NC(=O)[C@@H](Cc2cccs2)NC(=O)[C@H](CC(=O)O)NC(=O)[C@H](Cc2c[nH]c3ccccc23)NC(=O)[C@@H](CC(=O)O)NC(=O)[C@@H](Cc2c[nH]c3ccccc23)NC1=O [Example 50, Cyclo[-D-Asp-Trp-Asp-D-Thi-Leu-D-Trp-]] (cyclo(D[d2Thi]L[dW][dD]W))
6 | 6.7 | 15 | 8.3 | CC(C)C[C@@H]1NC(=O)[C@@H](CC(C)C)NC(=O)[C@H](CC(=O)O)NC(=O)[C@H](Cc2cn(C=O)c3ccccc23)NC(=O)[C@@H](CC(=O)O)NC(=O)[C@@H](Cc2c[nH]c3ccccc23)NC1=O [Example 22, Cyclo[-D-Asp-Trp(For)-Asp-D-Leu-Leu-D-Trp-]] (cyclo(D[dL]L[dW][dD]W(For)))
7 | 210 | 44 | 1 | CC(C)C[C@@H]1NC(=O)[C@@H](Cc2ccccc2)NC(=O)[C@H](CC(=O)O)NC(=O)[C@H](Cc2c[nH]c3ccccc23)NC(=O)[C@@H](CC(=O)O)NC(=O)[C@@H](Cc2c[nH]c3ccccc23)NC1=O [Example 60, Cyclo[-D-Asp-Trp-Asp-D-Phe-Leu-D-Trp-]] (cyclo(D[dF]L[dW][dD]W))
8 | 6.7 | 22 | 0.7 | CC(C)C[C@H]1NC(=O)[C@H](CC(=O)O)NC(=O)[C@H](C)NC(=O)[C@@H](CC(=O)O)NC(=O)[C@@H](Cc2c[nH]c3ccccc23)NC(=O)[C@H](Cc2c[nH]c3ccccc23)NC1=O [Example 58, Cyclo[-D-Asp-Ala-Asp-D-Leu-Trp-D-Trp-]] (cyclo(AD[dL]W[dW][dD]))
9 | 240 | 100 | 75 | CC(C)C[C@@H]1NC(=O)[C@@H](C(C)C)NC(=O)[C@H](CC(=O)O)NC(=O)[C@H](Cc2c[nH]c3ccccc23)NC(=O)[C@@H](CC(=O)O)NC(=O)[C@@H](Cc2c[nH]c3ccccc23)NC1=O [Example 52, Cyclo[-D-Asp-Trp-Asp-D-Val-Leu-D-Trp-]] (cyclo(D[dV]L[dW][dD]W))

Source: patent publication EP0552417B1, “Cyclic peptides and use thereof” (priority 1991, dated 1993)
